Assay results reported in patent publication US10800741B2 (ANCUREALL PHARMACEUTICAL (SHANGHAI) CO., LTD., priority 2017, dated 2020).

What was measured:
H1581 (FGFR1 amp) = assay: In vitro growth inhibition of H1581 tumor cells (MTT/CCK8); type: cell-based, Human; details: Homo sapiens, NCI-H1581; in vitro growth inhibition (or induction of apoptosis), cells cultured 3 to 5 days, MTT (CCK8); read-out: IC50 H1581 (FGFR1 amp)
Hep3B2 (FGFR3/4+++) = assay: In vitro growth inhibition of Hep3B2 tumor cells (MTT/CCK8); type: cell-based, Human; details: Homo sapiens, Hep3B; in vitro growth inhibition (or induction of apoptosis), cells cultured 3 to 5 days, MTT (CCK8); read-out: IC50 Hep3B2 (FGFR3/4+++)
MOLM-13 (FLT3-ITD) = assay: In vitro growth inhibition of MOLM-13 tumor cells (MTT/CCK8); type: cell-based, Human; details: Homo sapiens, MOLM-13; in vitro growth inhibition (or induction of apoptosis), cells cultured 3 to 5 days, MTT (CCK8); read-out: IC50 MOLM-13 (FLT3-ITD)
KCL-22 (BCR-ABL) = assay: In vitro growth inhibition of KCL-22 tumor cells (MTT/CCK8); type: cell-based, Human; details: Homo sapiens, KCL-22; in vitro growth inhibition (or induction of apoptosis), cells cultured 3 to 5 days, MTT (CCK8); read-out: IC50 KCL-22 (BCR-ABL)
Kasumi-1 (KIT N822K) = assay: In vitro growth inhibition of Kasumi-1 tumor cells (MTT/CCK8); type: cell-based, Human; details: Homo sapiens, Kasumi 1; in vitro growth inhibition (or induction of apoptosis), cells cultured 3 to 5 days, MTT (CCK8); read-out: IC50 Kasumi-1 (KIT N822K)
H1703 (PDGFRa amp) = assay: In vitro growth inhibition of H1703 tumor cells (MTT/CCK8); type: cell-based, Human; details: Homo sapiens, NCI-H1703; in vitro growth inhibition (or induction of apoptosis), cells cultured 3 to 5 days, MTT (CCK8); read-out: IC50 H1703 (PDGFRa amp)
SNU-16 = assay: In vitro growth inhibition of SNU-16 cells; type: cell-based; details: Homo sapiens, FGFR2 amp
Protocol: (§1) Adherent cells were digested with 0.25% trypsin-EDTA (Gibco). Suspension culture cells were collected by centrifugation (1700 rpm, 3 minutes). The supernatant was discarded and the cells were counted. According to each cell growth cycle, different concentrations of cells were prepared (5˜10×10^4 cells per ml), and inoculated to 96-well plates (Corning), with 100 μl per well, and incubated overnight at 37° C., 5% CO2. The next day, the test compound was added to the cultured cells (2 wells in parallel). The final concentration of the solvent was less than 1/1,000. The cells were further cultured for 3 to 5 days and assayed by MTT.
(§2) The MTT test reagent was a Dojindo CCK8 kit and the Microplate Reader was a THERMO […] FC instrument.
(§3) The adherent cells were taken out from the cell culture medium, and immediately added to a freshly prepared complete medium containing 10% CCK8 (5% FBS), 100 ul per hole. The suspended cells were directly added to a CCK8 reagent until reaching a final concentration of 10% and cultured for 1 to 4 hours. When a dark yellow color could be observed in the solvent control wells, the absorbance value at OD450 nm was measured and the cell growth rate was calculated according to the following formula: Cell Growth Rate (%)=100×(T−T0)/(C−T0)
(§4) T=optical density of drug-treated cell wells−optical density of blank control wells; T0=optical density of cell wells before drug treatment−optical density of blank control wells; C=optical density of solvent control wells−optical density of blank control wells. […] The experiments were repeated 1 to 3 times and a statistical analysis of data was conducted.
(§5) Mutations in the FGFR1-4 gene often occur in different types of cancer patients. In order to test the growth inhibition activity of the present compound against tumor cells expressing different FGFR variants, tumor cell lines expressing representative FGFR1-4 were selected for further determining the activity of compounds 25, 66, 38 and 95 of the present invention. BGJ398, a selective inhibitor of FGFR1-4, was used as the control compound. The specific test method is the same as test example 1.

Huh-7 = assay: In vitro growth inhibition of Huh-7 cells; type: cell-based; details: Homo sapiens, FGFR3+++, FGFR4 +++
Protocol: as §1, §2, §3, §4, §5

NCI-H460 = assay: In vitro growth inhibition of PI3KCA amplified/mutant tumor cells NCI-H460; type: cell-based; details: Homo sapiens; NCI-H460; PI3KCA E545K; KRAS Q61H; read-out: IC50 growth inhibition
Protocol: as §1, with “Suspension” for “Adherent cells were digested with 0.25% trypsin-EDTA (Gibco). Suspension”
(§6) The adherent cells were taken out from the cell culture medium, and immediately added to a freshly prepared complete medium containing 10% CCK8 (5% FBS), 100 ul per hole. The suspended cells were directly added to a CCK8 reagent until reaching a final concentration of 10% and cultured for 1 to 4 hours.
as §4

HGC-27 = assay: In vitro growth inhibition of PI3KCA amplified/mutant tumor cells HGC-27; type: cell-based; details: Homo sapiens; HGC-27; PI3KCA H1047R; FGFR1OP2+++; read-out: IC50 growth inhibition
Protocol: as §1, with “Suspension” for “Adherent cells were digested with 0.25% trypsin-EDTA (Gibco). Suspension”
as §6, §4

HCC1954 = assay: In vitro growth inhibition of PI3KCA amplified/mutant tumor cells HCC1954; type: cell-based; details: Homo sapiens; HCC1954; PI3KCA H1047R; HER2 amp; read-out: IC50 growth inhibition
Protocol: as §1, with “Suspension” for “Adherent cells were digested with 0.25% trypsin-EDTA (Gibco). Suspension”
as §6, §4

IC50 (H1581 (FGFR1 amp)) [nM] | IC50 (Hep3B2 (FGFR3/4+++)) [nM] | IC50 (MOLM-13 (FLT3-ITD)) [nM] | IC50 (KCL-22 (BCR-ABL)) [nM] | IC50 (Kasumi-1 (KIT N822K)) [nM] | IC50 (H1703 (PDGFRa amp)) [nM] | IC50 (SNU-16) [nM] | IC50 (Huh-7) [nM] | IC50 (NCI-H460) [nM] | IC50 (HGC-27) [nM] | IC50 (HCC1954) [nM] | SMILES
0.29 | 4.24 | 0.85 | 0.481 | 1.32 | 1.81 | 2.03 | 3.99 | 25.7 | 19.2 | 11.8 | COc1cc2nccc(Oc3ccc(NC(=O)Nc4cc(C(C)(C)C)nn4C)c(Cl)c3Cl)c2cc1C(N)=O [Compound 38, 4-{4-[3-(5-tert-butyl-2-methyl-2H-pyrazol-3-yl)-ureido]-2,3-dichloro-phenoxy}-7-methoxyquinolin-6-carboxamide]
2.03 | 6.06 | 0.87 | 3.12 | 1.13 | 7.54 | 1.01 | 1.98 | 26.2 | 39.9 | 37.5 | COCCOc1cc2nccc(Oc3ccc(NC(=O)Nc4cc(C(C)(C)C)n[nH]4)c(Cl)c3)c2cc1NC(C)=O [Compound 66, N-[4-{4-[3-(5-tert-butyl-2H-pyrazol-3-yl)-ureido]-3-chloro-phenoxy}-7-(2-methoxy-ethoxy)-quinolin-6-yl]-acetamide]
7.88 | 8.52 | 1.75 | 7.03 | 1.34 | 3.81 | 3.34 | 7.89 | 34.5 | 30.9 | 9.94 | CN1CCN(CCCOc2cc3nccc(Oc4ccc(NC(=O)Nc5cc(C(C)(C)C)n[nH]5)c(Cl)c4Cl)c3cc2C(N)=O)CC1 [Compound 95]
